Assays:
Conditions in all cases: Compound concentration 1000.0 nM
[1] = molecular target: BMP-2-inducible protein kinase (Homo sapiens) (UniProt Q9NSY1)
[2] = molecular target: Tyrosine-protein kinase Blk (Homo sapiens) (UniProt P51451)
[3] = molecular target: Bone morphogenetic protein receptor type-1A (Homo sapiens) (UniProt P36894)
[4] = molecular target: Cytoplasmic tyrosine-protein kinase BMX (Homo sapiens) (UniProt P51813)
[5] = molecular target: Mitotic checkpoint serine/threonine-protein kinase BUB1 (Homo sapiens) (UniProt O43683)
[6] = molecular target: Calcium/calmodulin-dependent protein kinase type II subunit alpha (Homo sapiens) (UniProt Q9UQM7)
[7] = molecular target: Calcium/calmodulin-dependent protein kinase type II subunit gamma (Homo sapiens) (UniProt Q13555)
[8] = molecular target: Cyclin-dependent kinase 4 (Homo sapiens) (UniProt P11802)
Sequence of Cyclin-dependent kinase 4 (Homo sapiens) (P11802 whole entry): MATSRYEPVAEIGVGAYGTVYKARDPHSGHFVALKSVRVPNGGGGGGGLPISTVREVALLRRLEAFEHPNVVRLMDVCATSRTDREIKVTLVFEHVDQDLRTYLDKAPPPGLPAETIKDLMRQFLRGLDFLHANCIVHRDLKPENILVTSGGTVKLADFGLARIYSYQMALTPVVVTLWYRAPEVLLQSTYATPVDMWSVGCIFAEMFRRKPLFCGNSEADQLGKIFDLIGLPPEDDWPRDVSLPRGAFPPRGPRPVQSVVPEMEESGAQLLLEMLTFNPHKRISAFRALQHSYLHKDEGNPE

[9] = molecular target: Dual specificity protein kinase CLK1 (Homo sapiens) (UniProt P49759)
[10] = molecular target: Dual specificity tyrosine-phosphorylation-regulated kinase 1A (Homo sapiens) (UniProt Q13627)
[11] = tested on: Epidermal growth factor receptor (Homo sapiens), P00533 [L861Q]
[12] = tested on: Epidermal growth factor receptor (Homo sapiens), P00533 [T790M]
[13] = molecular target: Eukaryotic translation initiation factor 2-alpha kinase 1 (Homo sapiens) (UniProt Q9BQI3)
[14] = molecular target: Ephrin type-A receptor 5 (Homo sapiens) (UniProt P54756)
[15] = molecular target: Receptor tyrosine-protein kinase erbB-3 (Homo sapiens) (UniProt P21860)
Sequence of Receptor tyrosine-protein kinase erbB-3 (Homo sapiens) (P21860 whole entry): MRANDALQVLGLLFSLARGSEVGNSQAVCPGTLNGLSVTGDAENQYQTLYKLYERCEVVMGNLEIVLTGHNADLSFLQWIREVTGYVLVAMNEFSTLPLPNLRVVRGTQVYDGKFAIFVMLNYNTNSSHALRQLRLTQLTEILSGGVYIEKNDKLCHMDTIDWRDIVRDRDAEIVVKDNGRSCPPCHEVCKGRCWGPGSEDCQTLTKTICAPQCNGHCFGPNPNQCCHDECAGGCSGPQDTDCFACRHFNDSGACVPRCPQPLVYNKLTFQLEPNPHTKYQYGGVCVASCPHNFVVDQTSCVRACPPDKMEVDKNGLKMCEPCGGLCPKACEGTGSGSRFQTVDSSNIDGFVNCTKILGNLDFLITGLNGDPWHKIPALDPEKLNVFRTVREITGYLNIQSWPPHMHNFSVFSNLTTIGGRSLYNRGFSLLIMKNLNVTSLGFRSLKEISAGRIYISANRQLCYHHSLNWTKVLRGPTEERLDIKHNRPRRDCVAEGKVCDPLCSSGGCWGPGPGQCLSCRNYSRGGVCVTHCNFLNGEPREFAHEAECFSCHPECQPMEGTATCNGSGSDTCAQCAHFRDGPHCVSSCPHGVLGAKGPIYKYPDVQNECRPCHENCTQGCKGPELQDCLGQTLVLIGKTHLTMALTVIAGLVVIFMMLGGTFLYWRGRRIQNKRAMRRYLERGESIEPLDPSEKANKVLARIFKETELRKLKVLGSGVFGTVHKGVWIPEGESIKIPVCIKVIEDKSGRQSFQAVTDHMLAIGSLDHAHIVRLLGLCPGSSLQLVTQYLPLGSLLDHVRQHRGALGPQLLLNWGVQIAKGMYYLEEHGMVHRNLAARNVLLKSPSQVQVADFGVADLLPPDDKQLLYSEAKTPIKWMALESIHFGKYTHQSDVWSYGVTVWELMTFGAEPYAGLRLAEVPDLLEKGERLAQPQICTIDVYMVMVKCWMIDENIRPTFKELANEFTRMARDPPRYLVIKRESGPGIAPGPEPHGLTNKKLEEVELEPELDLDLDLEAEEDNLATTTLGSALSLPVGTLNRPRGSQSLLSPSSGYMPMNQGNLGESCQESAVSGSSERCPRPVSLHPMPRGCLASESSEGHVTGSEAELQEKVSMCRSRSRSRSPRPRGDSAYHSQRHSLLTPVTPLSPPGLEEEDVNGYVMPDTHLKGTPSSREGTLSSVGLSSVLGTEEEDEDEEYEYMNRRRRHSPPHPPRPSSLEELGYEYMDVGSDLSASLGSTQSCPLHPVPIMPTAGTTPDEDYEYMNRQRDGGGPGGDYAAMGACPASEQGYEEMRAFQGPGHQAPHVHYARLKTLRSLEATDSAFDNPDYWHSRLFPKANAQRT

[16] = molecular target: Tyrosine-protein kinase Fes/Fps (Homo sapiens) (UniProt P07332)
Sequence of Tyrosine-protein kinase Fes/Fps (Homo sapiens) (P07332 whole entry): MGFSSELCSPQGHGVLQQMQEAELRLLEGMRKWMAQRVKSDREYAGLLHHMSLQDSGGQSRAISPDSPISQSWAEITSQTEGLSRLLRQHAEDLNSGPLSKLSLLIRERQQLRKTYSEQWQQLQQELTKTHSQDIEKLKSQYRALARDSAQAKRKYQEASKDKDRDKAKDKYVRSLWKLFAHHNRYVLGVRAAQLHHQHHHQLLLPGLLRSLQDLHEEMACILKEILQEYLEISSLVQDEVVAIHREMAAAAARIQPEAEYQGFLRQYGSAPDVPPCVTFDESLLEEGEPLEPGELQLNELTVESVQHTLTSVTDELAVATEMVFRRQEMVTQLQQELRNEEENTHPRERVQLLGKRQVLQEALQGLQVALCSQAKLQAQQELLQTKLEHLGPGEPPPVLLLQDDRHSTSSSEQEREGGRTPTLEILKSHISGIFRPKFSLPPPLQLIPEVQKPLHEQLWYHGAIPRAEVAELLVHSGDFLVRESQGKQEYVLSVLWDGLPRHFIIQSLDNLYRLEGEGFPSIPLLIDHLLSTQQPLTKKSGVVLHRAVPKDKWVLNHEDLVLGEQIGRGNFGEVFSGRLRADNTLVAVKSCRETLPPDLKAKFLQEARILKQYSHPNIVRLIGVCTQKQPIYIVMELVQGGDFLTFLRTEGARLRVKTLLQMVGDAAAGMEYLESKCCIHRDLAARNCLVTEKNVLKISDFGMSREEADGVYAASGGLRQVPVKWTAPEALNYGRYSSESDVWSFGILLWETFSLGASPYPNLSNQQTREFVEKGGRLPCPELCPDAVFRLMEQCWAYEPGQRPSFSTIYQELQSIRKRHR

[17] = molecular target: Fibroblast growth factor receptor 3 (Homo sapiens) (UniProt P22607)
[18] = tested on: Receptor-type tyrosine-protein kinase FLT3 (Homo sapiens), P36888 [D835H]
[19] = tested on: Receptor-type tyrosine-protein kinase FLT3 (Homo sapiens), P36888 [K663Q]
[20] = tested on: Receptor-type tyrosine-protein kinase FLT3 (Homo sapiens), P36888 [R834Q]
[21] = molecular target: Receptor-type tyrosine-protein kinase FLT3 (Homo sapiens) (UniProt P36888)
[22] = molecular target: Homeodomain-interacting protein kinase 2 (Homo sapiens) (UniProt Q9H2X6)
[23] = molecular target: Serine/threonine-protein kinase ICK (Homo sapiens) (UniProt Q9UPZ9)
[24] = molecular target: Insulin receptor-related protein (Homo sapiens) (UniProt P14616)
[25] = tested on: Leucine-rich repeat serine/threonine-protein kinase 2 (Homo sapiens), Q5S007 [G2019S]
[26] = molecular target: Serine/threonine-protein kinase MAK (Homo sapiens) (UniProt P20794)
[27] = molecular target: Tyrosine-protein kinase Mer (Homo sapiens) (UniProt Q12866)
[28] = molecular target: Mitogen-activated protein kinase kinase kinase 9 (Homo sapiens) (UniProt P80192)
Sequence of Mitogen-activated protein kinase kinase kinase 9 (Homo sapiens) (P80192 whole entry, looked up): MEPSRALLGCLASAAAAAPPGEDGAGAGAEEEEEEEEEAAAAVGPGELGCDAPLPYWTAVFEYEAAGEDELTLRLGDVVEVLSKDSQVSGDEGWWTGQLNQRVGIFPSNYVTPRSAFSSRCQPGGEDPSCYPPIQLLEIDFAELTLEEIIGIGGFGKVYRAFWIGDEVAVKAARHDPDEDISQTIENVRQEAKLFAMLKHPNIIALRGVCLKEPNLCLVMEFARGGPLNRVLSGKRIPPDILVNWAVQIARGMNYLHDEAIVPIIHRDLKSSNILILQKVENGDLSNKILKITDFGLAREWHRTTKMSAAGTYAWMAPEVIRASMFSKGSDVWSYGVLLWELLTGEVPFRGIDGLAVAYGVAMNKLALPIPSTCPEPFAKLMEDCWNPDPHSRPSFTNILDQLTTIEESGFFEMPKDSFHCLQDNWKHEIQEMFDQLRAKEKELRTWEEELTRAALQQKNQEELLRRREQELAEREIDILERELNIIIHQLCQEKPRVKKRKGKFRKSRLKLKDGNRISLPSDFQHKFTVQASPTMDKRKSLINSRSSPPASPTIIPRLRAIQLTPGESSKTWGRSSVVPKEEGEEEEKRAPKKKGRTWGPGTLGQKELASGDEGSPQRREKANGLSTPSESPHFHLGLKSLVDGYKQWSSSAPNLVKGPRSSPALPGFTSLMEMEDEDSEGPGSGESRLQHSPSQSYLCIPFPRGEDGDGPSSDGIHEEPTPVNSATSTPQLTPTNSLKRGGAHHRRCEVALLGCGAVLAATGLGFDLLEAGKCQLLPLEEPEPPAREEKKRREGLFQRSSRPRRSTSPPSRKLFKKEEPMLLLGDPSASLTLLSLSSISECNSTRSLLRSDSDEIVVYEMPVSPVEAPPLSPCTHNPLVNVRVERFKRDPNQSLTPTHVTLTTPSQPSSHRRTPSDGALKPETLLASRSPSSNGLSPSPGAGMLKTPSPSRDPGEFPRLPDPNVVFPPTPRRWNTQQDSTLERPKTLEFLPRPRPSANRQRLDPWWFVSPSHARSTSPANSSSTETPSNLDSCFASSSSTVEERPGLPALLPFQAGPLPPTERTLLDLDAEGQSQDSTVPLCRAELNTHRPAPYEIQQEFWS

[29] = molecular target: Myosin light chain kinase, smooth muscle (Homo sapiens) (UniProt Q15746)
[30] = molecular target: Serine/threonine-protein kinase PAK 2 (Homo sapiens) (UniProt Q13177)
[31] = molecular target: Serine/threonine-protein kinase PAK 3 (Homo sapiens) (UniProt O75914)
[32] = tested on: Phosphatidylinositol 4,5-bisphosphate 3-kinase catalytic subunit alpha isoform (Homo sapiens), P42336 [E545A]
[33] = molecular target: Serine/threonine-protein kinase RIO2 (Homo sapiens) (UniProt Q9BVS4)
[34] = molecular target: Receptor-interacting serine/threonine-protein kinase 1 (Homo sapiens) (UniProt Q13546)
[35] = molecular target: Serine/threonine-protein kinase Sgk3 (Homo sapiens) (UniProt Q96BR1)
[36] = molecular target: SRSF protein kinase 1 (Homo sapiens) (UniProt Q96SB4)
Sequence of SRSF protein kinase 1 (Homo sapiens) (Q96SB4 whole entry): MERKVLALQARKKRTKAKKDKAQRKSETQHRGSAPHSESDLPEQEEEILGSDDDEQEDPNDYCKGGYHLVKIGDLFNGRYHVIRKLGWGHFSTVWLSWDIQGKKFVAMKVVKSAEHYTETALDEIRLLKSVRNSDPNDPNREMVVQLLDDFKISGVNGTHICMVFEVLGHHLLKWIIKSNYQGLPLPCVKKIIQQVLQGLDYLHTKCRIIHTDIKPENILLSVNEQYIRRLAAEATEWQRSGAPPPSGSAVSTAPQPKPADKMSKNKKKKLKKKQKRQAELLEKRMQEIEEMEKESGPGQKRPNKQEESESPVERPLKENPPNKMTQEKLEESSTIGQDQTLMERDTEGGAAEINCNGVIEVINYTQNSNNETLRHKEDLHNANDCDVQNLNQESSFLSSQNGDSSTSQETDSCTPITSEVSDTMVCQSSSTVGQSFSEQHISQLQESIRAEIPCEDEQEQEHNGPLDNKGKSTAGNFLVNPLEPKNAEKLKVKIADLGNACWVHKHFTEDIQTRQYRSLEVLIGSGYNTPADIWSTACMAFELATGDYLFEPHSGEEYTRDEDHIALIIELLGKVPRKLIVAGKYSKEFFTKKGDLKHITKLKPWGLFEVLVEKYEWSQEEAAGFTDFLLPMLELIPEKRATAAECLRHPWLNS

[37] = molecular target: Dual specificity testis-specific protein kinase 1 (Homo sapiens) (UniProt Q15569)
[38] = molecular target: Serine/threonine-protein kinase tousled-like 1 (Homo sapiens) (UniProt Q9UKI8)
[39] = molecular target: Serine/threonine-protein kinase tousled-like 2 (Homo sapiens) (UniProt Q86UE8)
[40] = molecular target: Non-receptor tyrosine-protein kinase TNK1 (Homo sapiens) (UniProt Q13470)
[41] = molecular target: Transient receptor potential cation channel subfamily M member 6 (Homo sapiens) (UniProt Q9BX84)
[42] = molecular target: Non-receptor tyrosine-protein kinase TYK2 (Homo sapiens) (UniProt P29597)
[43] = molecular target: Serine/threonine-protein kinase ULK2 (Homo sapiens) (UniProt Q8IYT8)
[44] = molecular target: Tyrosine-protein kinase Yes (Homo sapiens) (UniProt P07947)
[45] = molecular target: Mitogen-activated protein kinase kinase kinase 19 (Homo sapiens) (UniProt Q56UN5)

Sequence of Tyrosine-protein kinase Blk (Homo sapiens) (P51451 2-505 limits assumed): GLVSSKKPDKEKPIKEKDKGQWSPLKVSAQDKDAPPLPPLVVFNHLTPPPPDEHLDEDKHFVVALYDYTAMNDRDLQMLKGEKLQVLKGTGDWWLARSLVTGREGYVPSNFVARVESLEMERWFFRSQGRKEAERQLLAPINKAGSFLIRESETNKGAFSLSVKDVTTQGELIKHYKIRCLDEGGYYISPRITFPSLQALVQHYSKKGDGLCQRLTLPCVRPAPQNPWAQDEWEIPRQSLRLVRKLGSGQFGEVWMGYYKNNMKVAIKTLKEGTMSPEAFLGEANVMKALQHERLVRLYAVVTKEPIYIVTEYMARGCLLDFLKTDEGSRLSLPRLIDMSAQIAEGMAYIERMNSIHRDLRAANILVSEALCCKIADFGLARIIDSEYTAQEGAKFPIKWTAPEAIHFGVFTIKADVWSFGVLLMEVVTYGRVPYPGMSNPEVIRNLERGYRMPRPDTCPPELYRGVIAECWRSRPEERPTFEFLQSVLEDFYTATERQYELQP

c1ccc(N2CCN(Cc3nc4ccccc4[nH]3)CC2)nc1 [ABT-724]
residual activity [1]: 100% | residual activity [2]: 100% | residual activity [3]: 86% | residual activity [4]: 100% | residual activity [5]: 100% | residual activity [6]: 100% | residual activity [7]: 100% | residual activity [8]: 100% | residual activity [9]: 100% | residual activity [10]: 100% | residual activity [11]: 74% | residual activity [12]: 99% | residual activity [13]: 100% | residual activity [14]: 100% | residual activity [15]: 91% | residual activity [16]: 100% | residual activity [17]: 96% | residual activity [18]: 100% | residual activity [19]: 100% | residual activity [20]: 100% | residual activity [21]: 100% | residual activity [22]: 26% | residual activity [23]: 100% | residual activity [24]: 97% | residual activity [25]: 100% | residual activity [26]: 100% | residual activity [27]: 90% | residual activity [28]: 100% | residual activity [29]: 80% | residual activity [30]: 100% | residual activity [31]: 100% | residual activity [32]: 87% | residual activity [33]: 100% | residual activity [34]: 100% | residual activity [35]: 100% | residual activity [36]: 100% | residual activity [37]: 97% | residual activity [38]: 95% | residual activity [39]: 100% | residual activity [40]: 59% | residual activity [41]: 100% | residual activity [42]: 100% | residual activity [43]: 100% | residual activity [44]: 100% | residual activity [45]: 100%

CSc1cccnc1N1CCN(Cc2nc3ccccc3[nH]2)CC1 [A-769]
residual activity [1]: 100% | residual activity [2]: 96% | residual activity [3]: 100% | residual activity [4]: 100% | residual activity [5]: 90% | residual activity [6]: 100% | residual activity [7]: 100% | residual activity [8]: 82% | residual activity [9]: 80% | residual activity [10]: 79% | residual activity [11]: 100% | residual activity [12]: 85% | residual activity [13]: 93% | residual activity [14]: 100% | residual activity [15]: 90% | residual activity [16]: 98% | residual activity [17]: 100% | residual activity [18]: 65% | residual activity [19]: 93% | residual activity [20]: 100% | residual activity [21]: 91% | residual activity [22]: 62% | residual activity [23]: 68% | residual activity [24]: 94% | residual activity [25]: 92% | residual activity [26]: 100% | residual activity [27]: 80% | residual activity [28]: 100% | residual activity [29]: 94% | residual activity [30]: 100% | residual activity [31]: 87% | residual activity [32]: 96% | residual activity [33]: 100% | residual activity [34]: 100% | residual activity [35]: 95% | residual activity [36]: 100% | residual activity [37]: 100% | residual activity [38]: 100% | residual activity [39]: 100% | residual activity [40]: 84% | residual activity [41]: 100% | residual activity [42]: 84% | residual activity [43]: 94% | residual activity [44]: 100% | residual activity [45]: 72%
